We go through seven compounds from ChEMBL document CHEMBL3751677, “Cardanol-derived AChE inhibitors: Towards the development of dual binding derivatives for Alzheimer's disease” (Eur J Med Chem, 2016).

Data set [1] in a line: Selectivity index, ratio of IC50 for horse butyrylcholine esterase to IC50 for electric eel acetylcholine esterase.
Another data set deals with Cholinesterase (Equus caballus, UniProt P81908). The data set can be described thus: Inhibition of horse butyrylcholine esterase preincubated for 10 mins followed by the addition of […] as substrate measured after 5 mins by Ellman's method.
In data set [2] the target is T1, Acetylcholinesterase (Electrophorus electricus, UniProt O42275). Nature of the data set: Non-competitive inhibition of electric eel acetylcholine esterase using […] as substrate by Ellman's method. A general note: Ellman's reagent forms a yellow product with free thiols.
For data set [3], the system named is HT-29. The data set can be described thus: Cytotoxicity against human HT-29 cells at 10 uM by LDH release assay. The conditions noted are these: ht-29, 10 µM. The format is cell-based. A general note: LDH in the medium is a marker of cell lysis.
The target in data set [4] is T1, Acetylcholinesterase. The data set can be described thus: Inhibition of electric eel acetylcholine esterase preincubated for 10 mins followed by the addition of […] as substrate measured after 5 mins by Ellman's method.
For data set [5], the system named is HT-29. The data set can be described thus: Cytotoxicity against human HT-29 cells assessed as LDH release at 100 uM after 24 hrs. The format is cell-based. The conditions noted are these: ht-29, 24 h.
The target in data set [6] is Amyloid-beta precursor protein (Homo sapiens) (UniProt P05067). The data set can be described thus: Inhibition of Amyloid beta42 (unknown origin) self aggregation assessed as Abeta fibril formation at 50 uM for 24 hrs by ThT-based fluorometric assay.
The subject of data set [7] is HT-29. Nature of the data set: Cytotoxicity against human HT-29 cells at 10 times IC50 by LDH release assay. It counts as cell-based.
In data set [8] the target is Acetylcholinesterase (Homo sapiens, UniProt P22303).
Description: Inhibition of human acetylcholine esterase preincubated for 10 mins followed by the addition of 550 uM of acetylcholine iodide as substrate measured after 20 mins by Ellman's method
Data set [9] deals with T1, Acetylcholinesterase. The data set can be described thus: Mixed inhibition of electric eel acetylcholine esterase using […] as substrate by Ellman's method.
The nature of data set [10]: Cytotoxicity against human HT-29 cells assessed as decrease in cell viability after 24 hrs by calcein-AM/propidium iodide based fluorescence analysis. The conditions noted are these: read-out: INH.

pIC50, pKi: −log10 of the molar value. Calls of active or inactive are those of the source. The rule behind the calls is not given here.

Cholinesterase, sequence (P81908 whole entry): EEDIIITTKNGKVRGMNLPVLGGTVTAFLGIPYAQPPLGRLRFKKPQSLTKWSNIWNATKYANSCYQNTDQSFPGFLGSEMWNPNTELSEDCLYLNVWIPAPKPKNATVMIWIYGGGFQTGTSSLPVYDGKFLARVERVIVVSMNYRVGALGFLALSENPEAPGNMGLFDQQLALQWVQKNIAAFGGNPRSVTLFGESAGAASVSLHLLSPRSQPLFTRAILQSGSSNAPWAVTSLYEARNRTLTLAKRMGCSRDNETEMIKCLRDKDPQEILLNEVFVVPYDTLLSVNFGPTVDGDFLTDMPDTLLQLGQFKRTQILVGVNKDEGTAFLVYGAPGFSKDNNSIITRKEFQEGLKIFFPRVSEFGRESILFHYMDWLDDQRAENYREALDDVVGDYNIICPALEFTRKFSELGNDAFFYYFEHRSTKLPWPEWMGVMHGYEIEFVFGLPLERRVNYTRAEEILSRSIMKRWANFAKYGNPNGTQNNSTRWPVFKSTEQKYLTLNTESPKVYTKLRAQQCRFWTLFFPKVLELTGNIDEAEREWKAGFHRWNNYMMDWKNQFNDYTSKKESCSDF
T1 sequence (O42275 whole entry): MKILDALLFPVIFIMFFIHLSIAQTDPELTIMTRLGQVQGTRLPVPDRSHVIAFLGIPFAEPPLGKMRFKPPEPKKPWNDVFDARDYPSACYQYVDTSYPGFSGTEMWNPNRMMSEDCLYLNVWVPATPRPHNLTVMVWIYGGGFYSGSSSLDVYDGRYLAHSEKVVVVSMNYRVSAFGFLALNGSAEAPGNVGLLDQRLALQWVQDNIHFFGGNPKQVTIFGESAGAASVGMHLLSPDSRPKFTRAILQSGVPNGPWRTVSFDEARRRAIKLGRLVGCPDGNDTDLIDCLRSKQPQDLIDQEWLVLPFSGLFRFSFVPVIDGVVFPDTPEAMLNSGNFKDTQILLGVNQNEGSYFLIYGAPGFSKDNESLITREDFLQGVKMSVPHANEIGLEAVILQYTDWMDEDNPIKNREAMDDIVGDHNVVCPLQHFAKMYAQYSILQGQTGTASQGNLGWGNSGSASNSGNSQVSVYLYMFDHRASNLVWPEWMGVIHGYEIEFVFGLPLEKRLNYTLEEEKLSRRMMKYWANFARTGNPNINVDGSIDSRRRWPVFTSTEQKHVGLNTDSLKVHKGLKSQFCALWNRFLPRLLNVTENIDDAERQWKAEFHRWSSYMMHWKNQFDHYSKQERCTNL
Acetylcholinesterase (Homo sapiens, UniProt P22303), sequence (P22303 whole entry): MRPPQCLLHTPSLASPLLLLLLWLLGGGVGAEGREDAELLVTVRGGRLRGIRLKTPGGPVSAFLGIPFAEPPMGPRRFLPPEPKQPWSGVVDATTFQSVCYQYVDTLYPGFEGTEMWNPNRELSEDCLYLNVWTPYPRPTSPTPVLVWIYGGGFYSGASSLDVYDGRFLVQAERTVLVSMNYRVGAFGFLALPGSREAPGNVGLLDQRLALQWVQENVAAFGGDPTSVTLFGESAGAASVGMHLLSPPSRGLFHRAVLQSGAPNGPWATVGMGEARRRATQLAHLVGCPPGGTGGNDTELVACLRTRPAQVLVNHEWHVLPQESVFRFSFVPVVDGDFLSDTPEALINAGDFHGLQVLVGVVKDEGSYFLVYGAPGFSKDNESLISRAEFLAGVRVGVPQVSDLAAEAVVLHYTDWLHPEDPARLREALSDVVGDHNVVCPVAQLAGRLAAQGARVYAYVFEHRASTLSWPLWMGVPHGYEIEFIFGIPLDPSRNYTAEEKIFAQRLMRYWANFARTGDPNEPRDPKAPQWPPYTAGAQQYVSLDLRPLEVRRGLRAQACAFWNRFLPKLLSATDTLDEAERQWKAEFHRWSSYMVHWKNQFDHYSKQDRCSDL
Amyloid-beta precursor protein (Homo sapiens), sequence (P05067 whole entry): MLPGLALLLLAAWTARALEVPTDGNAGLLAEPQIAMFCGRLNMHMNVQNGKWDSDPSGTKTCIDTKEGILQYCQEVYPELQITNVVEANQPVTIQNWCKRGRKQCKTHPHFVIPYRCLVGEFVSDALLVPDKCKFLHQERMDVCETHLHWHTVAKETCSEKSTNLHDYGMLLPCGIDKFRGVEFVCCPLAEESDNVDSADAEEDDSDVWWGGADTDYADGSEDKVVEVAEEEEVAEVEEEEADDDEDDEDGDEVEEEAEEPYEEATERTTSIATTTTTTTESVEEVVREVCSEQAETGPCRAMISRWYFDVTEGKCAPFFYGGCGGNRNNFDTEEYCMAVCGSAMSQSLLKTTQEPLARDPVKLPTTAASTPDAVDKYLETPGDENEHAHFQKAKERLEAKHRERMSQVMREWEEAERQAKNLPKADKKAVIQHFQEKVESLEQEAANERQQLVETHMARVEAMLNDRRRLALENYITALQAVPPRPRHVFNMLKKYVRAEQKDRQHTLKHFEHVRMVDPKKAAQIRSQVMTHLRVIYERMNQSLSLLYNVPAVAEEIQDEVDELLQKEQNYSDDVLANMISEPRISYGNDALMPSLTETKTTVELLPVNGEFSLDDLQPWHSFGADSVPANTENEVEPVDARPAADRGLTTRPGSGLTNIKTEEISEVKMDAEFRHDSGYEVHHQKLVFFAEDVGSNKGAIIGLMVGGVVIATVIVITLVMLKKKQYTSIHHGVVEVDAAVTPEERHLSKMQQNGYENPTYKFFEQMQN

For the compound `COc1cccc(CCCCCCCCN2CCCC(OC(C)=O)C2)c1` (racemic), the Ratio IC50 in [1] turned out to be 1.2. The pIC50 against Cholinesterase is 4.72; at Acetylcholinesterase [4], 4.79. The pKi on Acetylcholinesterase [2] is 4.72. Further, the Activity result in the data set with HT-29 [3] was “Non-toxic”.
For the compound `CCN(CCCCCCCCc1cccc(OC)c1)Cc1ccccc1OC`, the Ratio IC50 in [1] is 0.8. For the same compound, the pIC50 against Cholinesterase is 5.30; on Acetylcholinesterase [8], 5.25; against Acetylcholinesterase [4], 5.18. Besides, the pKi on Acetylcholinesterase [2] is 4.61. For the same compound, the Activity entry in the data set with HT-29 [5] is reported as “Toxic”; in the data set with HT-29 [7] it was “Toxic”; in the data set with HT-29 [3], “Non-toxic”. Moreover, in [6], the inhibition result was “inactive”.
`COc1cccc(CCCCCCCCN2CCCC2)c1`: the Ratio IC50 in data set [1] was determined as 0.8. The pIC50 is 4.79 against Cholinesterase and 4.71 against Acetylcholinesterase [4]. In the data set with HT-29 [3], the Activity result was “Non-toxic”. The same compound gave a pKi at Acetylcholinesterase [9] of 4.65.
As for `COc1cccc(CCCCCCCCN2CCC(OC(=O)N(C)C)C2)c1` (racemic), in [1], the Ratio IC50 stood at 1.7. In addition, the pIC50 was 4.64 at Cholinesterase and 4.86 against Acetylcholinesterase [4]. The compound also had a negative logarithm of the Ki (pKi) on Acetylcholinesterase [2] of 5.07. Moreover, the Activity result in the data set with HT-29 [3] is recorded as “Non-toxic”.
For `COc1cccc(CCCCCCCCNCc2ccccc2OC)c1`, the Ratio IC50 in [1] is 0.2. The pIC50 against Cholinesterase is 5.51; against Acetylcholinesterase [4] it was 4.76. Moreover, on Acetylcholinesterase [2], the pKi was 4.77. Besides, the cytotoxicity at 24 h in [10] was 46.3%. Further, the results for the Activity entry with HT-29 [5] and in the data set on HT-29 [3] were “Toxic” and “Non-toxic”, respectively.
`COc1cccc(CCCCCCCCN2CCCC(OC(=O)N(C)C)C2)c1` (racemic): in [1], the Ratio IC50 was 1.7. In addition, the pIC50 against Cholinesterase was 4.63; against Acetylcholinesterase [4], 4.84. The compound also had a pKi on Acetylcholinesterase [2] of 4.65. Also, the Activity result in the data set with HT-29 [3] is reported as “Non-toxic”.
The like results for `CCN(CCCCCCCCc1cccc(OC)c1)Cc1ccccc1` were, in that order, 0.5, 5.10, 4.79, 4.98 and “Non-toxic”.

As usually defined, the pIC50 is the IC50 on a negative log10 scale, so that one unit is a factor of ten. As a reminder, the pKi is −log10 of the Ki, conventionally taken in molar units. Read a low pKi as a large Ki.
